Usually inhibition stands for the change of the read-out against control, counted positive when it falls. The pIC50 is the negative decadic logarithm of the IC50, by convention in mol/L.

Data on 40 compounds can be found in patent US6218431A, “Substituted biphenyls” (Bayer Corporation, priority 1997, dated 2001).

pIC50: −log10 of the molar value.

The target of one test is T1, glucagon receptor (Homo sapiens, UniProt P47871).
T1 construct: expressed in transfected cells; host or cells: Chinese Hamster Ovary cells (CHO-HGR), membranes
T1 sequence (P47871 26-477): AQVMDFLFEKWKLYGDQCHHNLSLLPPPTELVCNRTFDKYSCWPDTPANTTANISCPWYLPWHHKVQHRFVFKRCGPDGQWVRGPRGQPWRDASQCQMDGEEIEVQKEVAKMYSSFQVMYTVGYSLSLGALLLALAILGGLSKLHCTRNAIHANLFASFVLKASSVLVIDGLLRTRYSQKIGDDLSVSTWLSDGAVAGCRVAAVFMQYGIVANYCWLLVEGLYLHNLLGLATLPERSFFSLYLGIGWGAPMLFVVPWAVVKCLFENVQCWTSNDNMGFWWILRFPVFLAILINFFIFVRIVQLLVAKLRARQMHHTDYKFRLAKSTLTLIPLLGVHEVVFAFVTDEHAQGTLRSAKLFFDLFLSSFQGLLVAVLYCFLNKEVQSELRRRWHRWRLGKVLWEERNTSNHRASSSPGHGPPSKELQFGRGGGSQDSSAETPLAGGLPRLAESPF
The test is described as follows: glucagon receptor binding assay (125I-glucagon, CHO-HGR membranes). Conditions: 20 μM; reported where 20 μM did not reduce glucagon binding by 50%. Put shortly:
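Membranes from CHO cells expressing glucagon receptor (10 ug protein) in Tris pH 7.4 buffer with EDTA, BSA and bacitracin, incubated with test compound and 125I-glucagon (9 fmol) 60 min at room temperature. Bound radioactivity counted after filtration; nonspecific binding defined with 1 μM native glucagon; 0.5% DMSO.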
`CCCC=Cc1c(C(C)C)nc(C(C)C)c(CO)c1-c1cccc(OCc2ccccc2)c1` [Example 152, 2,6-Diisopropyl-3-hydroxymethyl-4-(3-benzyloxyphenyl)-5-(pent-1-enyl)pyridine] registered an inhibition at 20 µM of 25.4%.

For `CC(C)c1nc(C(C)C)c(C(C)O)c(-c2ccc(F)cc2)c1CO` (racemic) [Example 93, (±)-2,6-Diisopropyl-3-hydroxymethyl-4-(4-fluorophenyl-5-(1-hydroxy-ethyl)pyridine], at 20 µM the inhibition was 28.3%.

As to `C=CC(O)c1nc(C(C)C)c(CO)c(-c2ccc(F)cc2)c1CCCCC` (stereo not shown) [Example 206, 2-(1-Hydroxyprop-2-enyl)-3-pentyl-4-(4-fluorophenyl)-5-hydroxymethyl-6-isopropylpyridine], the inhibition at 20 µM came to 44.6%.

The compound `CCCCCc1c(C(C)C)nc(C(C)C)c(CO)c1-c1ccc(F)c(C(O)c2ccc(F)cc2)c1` (stereo not drawn) [Example 181, 2,6-Diisopropyl-3-hydroxymethyl-4-[4-fluoro-3-(α-hydroxy-4-fluorobenzyl)phenyl]-5-pentylpyridine] yielded an inhibition at 20 µM of 46%.

The compound `CCCC=Cc1c(C(C)C)nc(C(C)C)c(CO)c1-c1ccc(-c2ccccc2)cc1` [Example 135, 2,6-Diisopropyl-3-hydroxymethyl-4-[4-(phenyl)phenyl]-5-(pent-1-enyl)pyridine] came in with an inhibition at 20 µM of 4.64%.

In turn, `CCCCCc1c(C(C)C)nc(C(C)C)c(CN)c1-c1ccc(F)cc1` [Example 121, 2,6-Diisopropyl-3-aminomethyl-4-(4fluorophenyl)-5-pentylpyridine] returned an inhibition at 20 µM of 26.2%.

Turning to `CC(C)c1nc(C(C)C)c(CCCCCCCCC(=O)O)c(-c2ccc(F)cc2)c1CO` [Example 91], 20 µM produced 14.2% inhibition.

Regarding `CCCCCc1c(C(C)C)nc(C(C)C)c(CO)c1-c1ccc(O)cc1` [Example 161, 2,6-Diisopropyl-3-hydroxymethyl-4-(4-hydroxyphenyl)-5-pentylpyridine], at 20 µM the inhibition was 24%.

`CCCC=Cc1c(C(C)C)nc(C(C)C)c(CO)c1-c1ccc(CC)cc1` [Example 131, 2,6-Diisopropyl-3-hydroxymethyl-4-(4-ethylphenyl)-5-(pent-1-enyl)-pyridine]: 20 µM produced 37.3% inhibition.

`C=CCC(O)c1c(C(C)C)nc(C(C)C)c(CCCCC)c1-c1ccc(F)cc1` (racemic) [Example 116]: testing at 20 µM gave an inhibition of 17%.

Compound `CCCC=Cc1c(CC)nc(CC)c(CO)c1-c1ccccc1` [Example 6] returned an inhibition at 20 µM of 34.2%.

Consider `CCCCC(OC)c1c(C(C)C)nc(C(C)C)c(CO)c1-c1ccc(F)cc1` (racemic) [Example 100, (±)-2,6-Diisopropyl-3-hydroxymethyl-4-(4-fluorophenyl)-5-(1-methoxy-pentyl)pyridine], for which the inhibition at 20 µM came to 39.6%.

Staying with this test, now noted: 125I-glucagon; 60 min at room temperature; read-out: IC50.
Regarding `CCCCCc1c(C(C)C)nc(C(C)C)c(C(C)O)c1-c1ccccc1O` (single isomer, unassigned) [Example 164-D1, 2,6-Diisopropyl-3-(1-hydroxyethyl)-4-(2-hydroxyphenyl)-5-pentylpyridine], the negative-log IC50 (pIC50) is 7.35.

Consider `CC(C)c1nc(C(C)C)c(CNC2CCCCC2)c(-c2ccc(F)cc2)c1CO` [Example 78, 2,6-Diisopropyl-3-hydroxymethyl-4-(4-fluorophenyl)-5-(cyclohexylamino)methylpyridine], for which the pIC50 was 5.12.

Regarding `CCC=Cc1c(C(C)C)nc(C(C)C)c(CO)c1-c1ccc(F)cc1` [Example 20, 2,6-Diisopropyl-3-hydroxymethyl-4-(4-fluorophenyl)-5-(l-butenyl)-pyridine], the pIC50 is 5.89.

Regarding `CCc1c(C(C)C)cc(C(C)C)c(C(C)O)c1-c1ccc(F)cc1` (single isomer, unassigned; (+)) [Example 244, (+)-3,5-Diisopropyl-2-(1-hydroxyethyl)-6-ethyl-4'-fluoro-1,1'-biphenyl], the negative-log IC50 (pIC50) is 6.74.

As for `CCCC=Cc1c(C(C)C)nc(C(C)C)c(CO)c1-c1ccc(F)cc1F` [Example 150, 2,6-Diisopropyl-3-hydroxymethyl-4-(2,4-difluorophenyl)-5-(pent-1-enyl)pyridine], the pIC50 was 5.35.

On to `CCCCCc1c(C(C)C)nc(C(C)C)c(C(C)O)c1-c1ccc(F)cc1` (single isomer, unassigned) [Example 107, 2,6-Diisopropyl-3-(1-hydroxyethyl-4-fluorophenyl)-5-pentylpyridine], for which the pIC50 is 5.52.

In the case of `CCCCCCC=Cc1c(C(C)C)nc(C(C)C)c(CO)c1-c1ccc(F)cc1` [Example 33, 2,6-Diisopropyl-3-hydroxymethyl-4-(4-fluorophenyl)-5-(1-octenyl)-pyridine], the pIC50 was 5.74.

Consider `CC(C)c1nc2c(c(-c3ccc(F)cc3)c1CO)CCCC2(C)C` [Example 230, 2-Isopropyl-3-hydroxymethyl-4-(4-fluorophenyl)-5,6,7,8-tetrahydro-8,8-dimethylquinoline], for which the negative logarithm of the IC50 (pIC50) was 6.05.

As for `CC(C)c1nc(C(C)C)c(CN(C)C)c(-c2ccc(F)cc2)c1CO` [Example 79, 2,6-Diisopropyl-3-hydroxymethyl-4-(4-fluorophenyl)-5-(dimethylamino)-methylpyridine], the pIC50 was 5.00.

For `Cc1cc(C)cc(SCc2c(C(C)C)nc(C(C)C)c(CO)c2-c2ccc(F)cc2)c1` [Example 61, 2,6-Diisopropyl-3-hydroxymethyl-4-(4-fluorophenyl)-5-[(3,5dimethylphenyl)thio]methylpyridine], the pIC50 was 5.47.

With `CCCCCc1c(C(C)C)cc(C(C)C)c(CO)c1-c1ccc(F)cc1` [Example 190, 3,5-Diisopropyl-2-hydroxymethyl-6-pentyl-4'-fluoro-1,1'-biphenyl], the pIC50 was 6.52.

In the case of `CCCCCC=Cc1c(C(C)C)nc(C(C)C)c(CO)c1-c1ccc(F)cc1` [Example 32, 2,6-Diisopropyl-3-hydroxymethyl-4-(4-fluorophenyl)-5-(1-heptenyl)-pyridine], the negative logarithm of the IC50 (pIC50) was 5.96.

As to `CCCCCc1c(C(C)C)cc(C(C)C)c(C(C)O)c1-c1ccc(F)cc1` (single isomer, unassigned; (+)) [Example 243, (+)-3,5-Diisopropyl-2-(1-hydroxyethyl)-6-pentyl-4'-fluoro-1,1'-biphenyl], the pIC50 is 7.07.

Consider `CCCCCc1c(C(C)C)cc(C(C)C)c(C(C)O)c1-c1ccc(F)cc1` (single isomer, unassigned; (+)) [Example 193, (+)-3,5-Diisopropyl-2-(1-hydroxyethyl)-6-pentyl-4'-fluoro-1,1-biphenyl], for which the pIC50 was 7.07.

For `CCCCC=Cc1c(C(C)C)nc(C(C)C)c(CO)c1-c1ccc(F)cc1` [Example 19, 2,6-Diisproyl-3-hyroxymethyl-4-(4-fluorophenyl)-5-(1-hexenyl)-pyridine], the pIC50 is 6.15.

In the case of `C=CCc1c(C(C)C)nc(C(C)C)c(CO)c1-c1ccc(F)cc1` [Example 87, 2,6-Diisopropyl-3-hydroxymethyl-4-(4fluorophenyl)-5-(2-propenyl)-pyridine], the pIC50 is 5.72.

With `CCCc1c(C(C)C)nc(C(C)C)c(CO)c1-c1ccc(F)cc1O` (single isomer, unassigned) [Example 239-E2, 2,6-Diisopropyl-3-(1-hydroxymethyl)-4-(4-fluoro-2-hydroxyphenyl)-5-propylpyridine], the negative logarithm of the IC50 (pIC50) is 7.30.

On to `CCCCCc1c(C=C(C)C)nc(C(C)C)c(CO)c1-c1ccc(F)cc1` [Example 226, 2-Isopropyl-3-hydroxymethyl-4-(4-fluorophenyl)-5-pentyl-6-(2-methylpropenyl)pyridine], for which the pIC50 was 5.52.

Regarding `Cc1cccc(/C=C/c2c(C(C)C)nc(C(C)C)c(CO)c2-c2ccc(F)cc2)c1` [Example 41, 2,6-Diisopropyl-3-hydroxvmethyl-4-(4fluorophenyl)-5-[2(E)-(3-methyl-phenyl)ethenyl]pyridine], the pIC50 was 6.22.

For `CC(C)c1nc(C(C)C)c(CO)c(-c2ccc(F)cc2)c1/C=C/c1ccccc1` [Example 34, 2,6-Diisopropyl-3hydroxymethyl-4-(4-fluorophenyl)-5-[2(E)-phenyl-ethenyl]pyridine], the pIC50 is 6.22.

For the compound `CCC=Cc1c(C(C)C)nc(C(C)C)c(CO)c1-c1ccccc1` [Example 13], the negative logarithm of the IC50 (pIC50) is 5.52.

As to `CCc1c(C(C)C)nc(C(C)C)c(CO)c1-c1ccc(F)cc1` [Example 26, 2,6Diisopropyl-3-hydroxymethyl-4-(4-fluorophenyl)-5-ethylpyridine], the pIC50 is 6.00.

`Cc1cccc(CCc2c(C(C)C)nc(C(C)C)c(CO)c2-c2ccc(F)cc2)c1` [Example 44, 2,6-Diisopropyl-3-hydroxymethyl-4-(4-fluorophenyl)-5-[2-(3-methyl-phenyl)ethyl]pyridine]: the pIC50 was 6.00.

Take `C=Cc1nc(C(C)C)c(CO)c(-c2ccc(F)cc2)c1CCCCC` [Example 214, 2-Ethenyl-3-pentyl-4-(4-fluorophenyl)-5-hydroxymethyl-6-isopropylpyridine]: the pIC50 was 5.30.

On to `CCCCCCCCc1c(C(C)C)nc(C(C)C)c(CO)c1-c1ccc(F)cc1` [Example 36, 2,6-Diisopropyl-3-hydroxymethyl-4-(4-fluorophenyl)-5-octylpyridine], for which the negative logarithm of the IC50 (pIC50) is 5.74.

For the compound `Cc1cccc(CCCc2c(C(C)C)nc(C(C)C)c(CO)c2-c2ccc(F)cc2)c1` [Example 85, 2,6-Diisopropyl-3-hydroxymethyl-4-(4-fluorophenyl)-5-[3-(3-methyl-5-phenyl)propyl]pyridine], the pIC50 is 5.82.

`CC(C)C=Cc1c(C(C)C)nc(C(C)C)c(CO)c1-c1ccc(F)cc1` [Example 27, 2,6-Diisopropyl-3-hydroxymethyl-4-(4-fluorophenyl)-5-(3-methyl-1-butenyl)pyridine]: the negative logarithm of the IC50 (pIC50) is 4.70.

Still in this test, the particulars now being: IC50, 125I-glucagon; 60 min at room temperature.
In turn, `CCCCCc1c(C(O)CCC)nc(C(C)C)c(CO)c1-c1ccc(F)cc1` (stereo not shown) [Example 211, 2-(1-Hydroxybutyl)-3-pentyl-4-(4-fluorophenyl)-5-hydroxymethyl-6-isopropylpyridine] gave a negative logarithm of the IC50 (pIC50) of 4.72.
